From US7033598B2, “Methods and apparatus for enhanced and controlled delivery of a biologically active agent into the central nervous system of a mammal” (Intrabrain International N.V., priority 1995, dated 2006)

Conditions: transnasal iontophoresis +3.0 mA, 60 minutes; exsanguinated rabbits
Method: The drug was administered by two nasal electrodes that were each deep inserted in the nasal passages. The receptor electrode was positioned at the back of the animal's head. The animal was prior to delivery exsanguinated so that drug transport via the systemic compartment to the brain cannot occur.
The receptor electrode used in the experiments was saturated with a 0.9% NaCl solution. The iontophoresis apparatus used in these experiment was an Endomed 581 (Enraf Nonius, Delft, The Netherlands) iontophoresis device.
Seven of the nine animals were treated “actively” by means of transnasal iontophoresis. A medium frequency, interrupted direct current with a strength of +3.0 mA was applied to the electrodes immediately after the exsanguination was completed. The remaining two animals functioned as controls of the method and no current was supplied to their electrodes. The experiment lasted 60 minutes.

With `Cl.Nc1c2c(nc3ccccc13)CCCC2.O` [Tacrine hydrochloride, 9-amino-1,2,3,4-tetrahydroacridine hydrochloride monohydrate] the “migration distance under the applied electric field” value was 5-6 cm.
